Measured values reported in the NIST ThermoML archive (doi:10.1016/j.jct.2016.12.015).

Details: 101.33 kPa, Crystal, Small (less than 1 g) adiabatic calorimetry

C[C@H]1C[C@@H]2[C@H]([C@@H](O)C[C@@]3(C)[C@H]2CC[C@]3(O)C(=O)CO)[C@@]2(C)C=CC(=O)C=C12 [Methylprednisolone]
Details	molar entropy [J/K/mol]
5 K	0.328
10 K	2.37
15 K	6.133
20 K	11.27
25 K	17.53
30 K	24.43
35 K	31.67
40 K	39.13
45 K	46.76
50 K	54.53
60 K	70.39
70 K	86.6
80 K	103
90 K	119.5
100 K	136.1
110 K	152.7
120 K	169.2
130 K	185.7
140 K	202.1
150 K	218.5
160 K	234.8
170 K	251
180 K	267.2
190 K	283.3
200 K	299.3
210 K	315.3
220 K	331.3
230 K	347.2
240 K	363.1
250 K	379
260 K	394.8
270 K	410.6
280 K	426.4
290 K	442.3
298.15 K	455.2
300 K	458.1
310 K	473.9
320 K	489.8
330 K	505.6
340 K	521.4
350 K	537.3
